Our source for the IC50 values is BindingDB's records for doi:10.7270/Q24748BK (Burnham Center For Chemical Genomics, 2010).

For this assay, the target named is T1, Tyrosine-protein phosphatase non-receptor type 22 (Homo sapiens, UniProt Q9Y2R2).
T1 sequence (Q9Y2R2 whole entry): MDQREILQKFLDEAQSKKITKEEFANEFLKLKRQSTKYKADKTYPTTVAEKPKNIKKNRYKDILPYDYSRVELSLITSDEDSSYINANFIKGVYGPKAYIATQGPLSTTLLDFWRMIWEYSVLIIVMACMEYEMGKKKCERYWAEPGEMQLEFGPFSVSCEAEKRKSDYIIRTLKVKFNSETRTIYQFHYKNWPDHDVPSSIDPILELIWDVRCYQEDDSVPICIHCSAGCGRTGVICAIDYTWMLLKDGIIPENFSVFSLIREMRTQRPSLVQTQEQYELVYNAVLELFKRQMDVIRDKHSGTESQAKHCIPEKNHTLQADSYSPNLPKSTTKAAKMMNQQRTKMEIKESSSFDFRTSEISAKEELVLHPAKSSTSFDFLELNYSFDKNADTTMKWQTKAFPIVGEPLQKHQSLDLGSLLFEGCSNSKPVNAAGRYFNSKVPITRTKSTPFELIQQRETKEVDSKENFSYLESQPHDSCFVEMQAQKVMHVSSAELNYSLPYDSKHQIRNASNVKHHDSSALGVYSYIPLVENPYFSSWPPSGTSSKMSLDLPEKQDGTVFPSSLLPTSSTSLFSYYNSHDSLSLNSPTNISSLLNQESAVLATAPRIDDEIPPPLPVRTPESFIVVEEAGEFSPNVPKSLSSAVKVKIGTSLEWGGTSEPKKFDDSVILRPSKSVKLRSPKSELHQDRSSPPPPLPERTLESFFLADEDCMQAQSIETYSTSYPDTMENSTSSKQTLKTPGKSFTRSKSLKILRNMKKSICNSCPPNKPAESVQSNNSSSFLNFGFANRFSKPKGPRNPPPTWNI
Put plainly: concentration-dependent PTPN22 LYP inhibition – biochemical, pCAP substrate, fluorescence intensity, dose response (AID 435027).
As usually defined, the IC50 is the concentration that gives 50% inhibition. Read a low IC50 as greater potency. In turn, `Cc1ccc(NN=C2C(=O)N(CN3CCOCC3)c3ccccc32)cc1` [(3Z)-3-[(4-methylphenyl)hydrazinylidene]-1-(4-morpholinylmethyl)-2-indolone] returned an IC50 above 79.4 µM.

As for `O=C1C([N+](=O)[O-])=CC(Br)=CC1/C=N/n1cnnc1` (stereo not given) [MLS000714804], the half-maximal inhibitory concentration (IC50) was above 79.4 µM.

The compound `COC1=CC=CC(/C=N/NC(=O)c2cc3cc([N+](=O)[O-])ccc3s2)C1=O` (stereo not given) [SMR000237814] showed a half-inhibitory concentration (IC50) of 15.7 µM.

The compound `N=C(NN=Cc1ccc2c(c1)OCO2)Sc1cc(O)n(-c2ccc(C(=O)O)cc2)c1O` [4-(3-{[[(2E)-2-(1,3-benzodioxol-5-ylmethylene)hydrazino](imino)methyl]thio}-2,5-dioxopyrrolidin-1-yl)benzoic acid] showed an IC50 of 7.65 µM.

Regarding `CCOC(=O)NC(=O)C(C=Nc1ccc(C)cc1)C(=O)NC(=O)OCC` [ethyl 2-{[(ethoxycarbonyl)amino]carbonyl}-3-(4-toluidino)acryloylcarbamate], the IC50 is above 79.4 µM.
